The target in assay [1] is T1, Atypical kinase COQ8B, mitochondrial (Homo sapiens) (UniProt Q96D53).
T1 sequence (whole entry): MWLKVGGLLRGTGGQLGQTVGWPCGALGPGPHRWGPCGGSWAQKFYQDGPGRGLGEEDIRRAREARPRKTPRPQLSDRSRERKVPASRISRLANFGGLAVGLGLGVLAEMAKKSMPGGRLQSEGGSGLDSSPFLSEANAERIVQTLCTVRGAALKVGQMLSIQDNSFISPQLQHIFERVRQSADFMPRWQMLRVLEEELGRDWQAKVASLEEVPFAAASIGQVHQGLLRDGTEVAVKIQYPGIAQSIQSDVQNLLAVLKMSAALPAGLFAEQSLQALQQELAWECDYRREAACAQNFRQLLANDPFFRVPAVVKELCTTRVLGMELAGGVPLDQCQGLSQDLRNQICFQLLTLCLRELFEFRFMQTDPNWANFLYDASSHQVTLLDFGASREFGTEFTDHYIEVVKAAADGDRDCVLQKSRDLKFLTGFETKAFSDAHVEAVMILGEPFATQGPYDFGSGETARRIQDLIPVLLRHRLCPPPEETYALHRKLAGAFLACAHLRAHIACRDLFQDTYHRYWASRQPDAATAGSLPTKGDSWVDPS
The assay is described as follows: Inhibition of ADCK4 (unknown origin) assessed as residual activity at 100 nM by KINOMEscan analysis relative to control.

The target of assay [2] is T2, cGMP-dependent protein kinase 2 (Homo sapiens) (UniProt Q13237).
T2 sequence (whole entry): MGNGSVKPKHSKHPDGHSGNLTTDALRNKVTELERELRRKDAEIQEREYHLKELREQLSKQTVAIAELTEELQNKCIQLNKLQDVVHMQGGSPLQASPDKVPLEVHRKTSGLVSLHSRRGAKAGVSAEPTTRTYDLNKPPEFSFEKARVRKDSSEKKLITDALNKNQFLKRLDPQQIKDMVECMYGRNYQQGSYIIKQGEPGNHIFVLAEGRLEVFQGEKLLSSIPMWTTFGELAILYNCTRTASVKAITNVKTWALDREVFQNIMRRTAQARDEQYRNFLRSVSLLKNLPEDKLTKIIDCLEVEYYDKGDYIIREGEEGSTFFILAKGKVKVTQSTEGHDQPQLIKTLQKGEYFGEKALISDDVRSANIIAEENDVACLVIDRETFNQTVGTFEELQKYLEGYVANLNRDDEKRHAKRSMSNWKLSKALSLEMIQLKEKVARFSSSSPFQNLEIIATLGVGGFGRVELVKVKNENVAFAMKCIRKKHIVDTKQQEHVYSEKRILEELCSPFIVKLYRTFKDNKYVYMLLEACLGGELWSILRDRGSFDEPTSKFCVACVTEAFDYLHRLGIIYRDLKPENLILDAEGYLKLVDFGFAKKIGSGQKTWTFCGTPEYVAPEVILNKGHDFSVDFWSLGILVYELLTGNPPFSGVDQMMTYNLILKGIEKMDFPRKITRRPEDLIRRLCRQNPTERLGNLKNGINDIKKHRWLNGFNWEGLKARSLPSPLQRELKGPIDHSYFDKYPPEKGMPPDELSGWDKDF
The experiment in a line: Inhibition of PRKG2 (unknown origin) assessed as residual activity at 100 nM by KINOMEscan analysis relative to control.

Assay [3] has as its target T3, Serine/threonine-protein kinase haspin (Homo sapiens) (UniProt Q8TF76).
T3 sequence (whole entry): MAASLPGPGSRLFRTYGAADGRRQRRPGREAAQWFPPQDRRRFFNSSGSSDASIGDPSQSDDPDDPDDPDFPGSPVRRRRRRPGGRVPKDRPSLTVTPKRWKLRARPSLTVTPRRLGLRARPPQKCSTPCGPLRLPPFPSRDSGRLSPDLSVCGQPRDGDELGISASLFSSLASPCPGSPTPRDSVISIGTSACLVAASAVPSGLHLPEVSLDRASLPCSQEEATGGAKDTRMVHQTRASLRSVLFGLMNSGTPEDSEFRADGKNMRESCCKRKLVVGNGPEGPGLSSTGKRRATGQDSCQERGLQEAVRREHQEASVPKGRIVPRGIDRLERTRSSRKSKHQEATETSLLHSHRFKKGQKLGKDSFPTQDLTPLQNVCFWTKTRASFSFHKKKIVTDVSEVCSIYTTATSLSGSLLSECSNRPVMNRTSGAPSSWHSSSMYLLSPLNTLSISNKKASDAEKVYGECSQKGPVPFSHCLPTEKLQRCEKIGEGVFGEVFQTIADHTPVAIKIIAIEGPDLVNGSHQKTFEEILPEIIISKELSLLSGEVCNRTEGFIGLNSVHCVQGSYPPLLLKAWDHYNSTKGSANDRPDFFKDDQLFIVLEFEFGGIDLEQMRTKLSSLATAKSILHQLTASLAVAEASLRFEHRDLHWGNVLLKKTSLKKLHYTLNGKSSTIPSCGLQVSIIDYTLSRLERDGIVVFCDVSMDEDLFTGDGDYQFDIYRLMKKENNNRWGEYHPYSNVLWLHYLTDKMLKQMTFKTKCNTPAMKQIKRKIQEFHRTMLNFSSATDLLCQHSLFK
The experiment in a line: Inhibition of HASPIN (unknown origin) assessed as residual activity at 100 nM by KINOMEscan analysis relative to control.

Assay [4] deals with Casein kinase I isoform gamma-3 (Homo sapiens) (UniProt Q9Y6M4). The experiment in a line: Inhibition of CSNK1G3 (unknown origin) assessed as residual activity at 100 nM by KINOMEscan analysis relative to control.
Casein kinase I isoform gamma-3 (Homo sapiens), sequence (Q9Y6M4 whole entry, looked up, canonical isoform): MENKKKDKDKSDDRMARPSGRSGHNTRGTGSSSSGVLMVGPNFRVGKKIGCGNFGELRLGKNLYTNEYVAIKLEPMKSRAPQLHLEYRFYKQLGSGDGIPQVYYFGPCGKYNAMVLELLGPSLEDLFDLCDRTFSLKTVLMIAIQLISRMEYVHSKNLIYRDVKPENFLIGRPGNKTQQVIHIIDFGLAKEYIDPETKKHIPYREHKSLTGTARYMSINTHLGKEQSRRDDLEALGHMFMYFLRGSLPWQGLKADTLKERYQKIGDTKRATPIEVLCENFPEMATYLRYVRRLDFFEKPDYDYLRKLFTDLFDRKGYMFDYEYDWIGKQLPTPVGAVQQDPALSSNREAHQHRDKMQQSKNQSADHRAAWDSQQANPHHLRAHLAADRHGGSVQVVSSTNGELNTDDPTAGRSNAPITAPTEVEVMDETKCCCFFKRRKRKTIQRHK

For `COc1cc2ncnc(N[C@H](C)c3cccc4ccccc34)c2cc1OC`, the Activity in assay [1] is 61%; in assay [2], 70%; in assay [3] it was 95%; in assay [4] it was 87%.

The values are drawn from ChEMBL document CHEMBL5678818, “Discovery of potent SOS1 inhibitors that block RAS activation via disruption of the RAS-SOS1 interaction” (Proc Natl Acad Sci U S A, 2019).
